Here are results for 19 molecules from US6562849B1, “Amine derivative compounds” (Sankyo Company, Limited, priority 1999, dated 2003).

This assay has as its system KK mice (age 4-5 months) with diabetes. The assay can be described thus: Blood sugar lowering effect in KK mice with diabetes. The assay is classed as in vivo. Particulars: Mus musculus, po, 72 h, powder diet containing 0.01% of the test compound for 3 days, plasma glucose vs control group, groups of 4 mice, read-out: Blood sugar decrease rate (%). The text has this: [Test Example] Blood Sugar Lowering Effect
Blood samples were collected from the caudal vein of KK mice (age 4-5 months) with diabetes followed by measurement of their blood sugar levels. Next, after assigning the mice to groups (of 4 mice each) so that the mean blood sugar levels of each group were the same, mouse laboratory powder diet (F-1, Funabashi Farms), prepared so as to contain 0.01% of the test compound, was given to the mice for 3 days. The groups of mice that were given test compound were designated as the drug dose groups. It should be noted that a group that was given laboratory diet not containing the test compound was designated as the control group. Blood samples were collected from the caudal vein of the mice 3 days later and the glucose concentration of the plasma obtained by centrifugal separation was measured with a glucose analyzer (Glucoloader, A & T Corp.). The mean decrease of blood sugar rate (%) was determined according to the following equation.
Blood sugar decrease rate (%)=(mean blood sugar value of control group−mean blood sugar value […] of drug dose group)×100/(blood sugar value of control group)

Where a name gives a salt, the structure may show the parent alone.

On to `Cc1cc(Oc2ccc3nc(COc4ccc(CC5SC(=O)NC5=O)cc4)n(C)c3c2)cc(C)c1NC(=S)Nc1ccc(Cl)cc1` (stereo not shown) [Example 2, 1-(4-Chlorophenyl)-3-(4-[2-[4-(2,4-dioxothiazolidin-5-ylmethyl)phenoxymethyl]-1-methyl-1H-benzimidazol-6-yloxy]-2,6-dimethylphenyl)thiourea], for which the inhibition in vivo at 0.01 % in diet worked out at 48.9%. In the case of `Cc1cc(Oc2ccc3nc(COc4ccc(CC5SC(=O)NC5=O)cc4)n(C)c3c2)cc(C)c1NC(=O)Nc1ccc([N+](=O)[O-])cc1` (stereo not shown) [Example 3, 1-(4-[2-[4-(2,4-Dioxothiazolidin-5-ylmethyl)phenoxymethyl]-1-methyl-1H-benzimidazol-6-yloxy]-2,6-dimethylphenyl)-3-(4-nitrophenyl)urea] it was 49.9%; in that of `Cn1c(COc2ccc(CC3SC(=O)NC3=O)cc2)nc2ccc(Oc3ccc(NC(=O)Nc4ccccc4)cc3)cc21` (stereo not shown) [Example 4, 1-(4-[2-[4-(2,4-Dioxothiazolidin-5-ylmethyl)phenoxymethyl]-1-methyl-1H-benzimidazol-6-yloxy]phenyl)-3-phenylurea], 48.6%.

Take `Cn1c(COc2ccc(CC3SC(=O)NC3=O)cc2)nc2ccc(Oc3ccc(NC(=O)Nc4ccc(F)cc4F)cc3)cc21` (stereo not shown) [Example 5, 1-(2,4-Difluorophenyl)-3-(4-[2-[4-(2,4-dioxothiazolidin-5-ylmethyl)phenoxymethyl]-1-methyl-1H-benzimidazol-6-yloxy]phenyl)urea]: the inhibition in vivo at 0.01 % in diet is 36.2%. Turning to `Cn1c(COc2ccc(CC3SC(=O)NC3=O)cc2)nc2ccc(Oc3ccc(NC(=S)NC4CCCCC4)cc3)cc21` (stereo not shown) [Example 9, 1-(4-[2-[4-(2,4-Dioxothiazolidin-5-ylmethyl)phenoxymethyl]-1-methyl-1H-benzimidazol-6-yloxy]phenyl)-3-(cyclohexyl)thiourea], the inhibition in vivo at 0.01 % in diet was 47.1%. Regarding `Cn1c(COc2ccc(CC3SC(=O)NC3=O)cc2)nc2ccc(Oc3ccc(NC(=S)NCc4ccccc4)cc3)cc21` (stereo not shown) [Example 11, 1-Benzyl-3-(4-[2-[4-(2,4-dioxothiazolidin-5-ylmethyl)phenoxymethyl]-1-methyl-1H-benzimidazol-6-yloxy]phenyl)thiourea], the inhibition in vivo at 0.01 % in diet was determined as 32.9%. To `CCNC(=O)Nc1ccc(Oc2ccc3nc(COc4ccc(CC5SC(=O)NC5=O)cc4)n(C)c3c2)cc1` (stereo not shown) [Example 12, 1-(4-[2-[4-(2,4-Dioxothiazolidin-5-ylmethyl)phenoxymethyl]-1-methyl-1H-benzimidazol-6-yloxy]phenyl)-3-ethylurea] belongs 56.1%. For the molecule `Cn1c(COc2ccc(CC3SC(=O)NC3=O)cc2)nc2ccc(Oc3ccc(NC(=O)NC45CC6CC(CC(C6)C4)C5)cc3)cc21` (stereo not shown) [Example 14, 1-(Adamant-1-yl)-3-(4-[2-[4-(2,4-dioxothiazolidin-5-ylmethyl)phenoxymethyl]-1-methyl-1H-benzimidazol-6-yloxy]phenyl)urea], the inhibition in vivo at 0.01 % in diet was found to be 63.2%. To `CCCCCCN(C(=O)Nc1ccc(F)cc1)c1ccc(Oc2ccc3nc(COc4ccc(CC5SC(=O)NC5=O)cc4)n(C)c3c2)cc1` (stereo not shown) [Example 16, 1-(4-[2-[4-(2,4-Dioxothiazolidin-5-ylmethyl)phenoxymethyl]-1-methyl-1H-benzimidazol-6-yloxy]phenyl)-1-n-hexyl-3-(4-fluorophenyl)urea] belongs 42.9%; to `Cn1c(COc2ccc(CC3SC(=O)NC3=O)cc2)nc2ccc(Oc3ccc(NS(C)(=O)=O)cc3)cc21` (stereo not shown) [Example 18, N-(4-[2-[4-(2,4-Dioxothiazolidin-5-ylmethyl)phenoxymethyl]-1-methyl-1H-benzimidazol-6-yloxy]phenyl)methanesulfonamide], 61%; to `Cn1c(COc2ccc(CC3SC(=O)NC3=O)cc2)nc2ccc(Oc3ccc(CCNC(=O)Nc4ccc(F)cc4F)cc3)cc21` (stereo not shown) [Example 31, 1-(2,4-Difluorophenyl)-3-[2-(4-[2-[4-(2,4-dioxothiazolidin-5-ylmethyl)phenoxymethyl]-1-methyl-1H-benzimidazol-6-yloxy]phenyl)ethyl]urea], 50.5%.

In the case of `Cn1c(COc2ccc(CC3SC(=O)NC3=O)cc2)nc2ccc(Oc3ccc(CCNC(=O)NC45CC6CC(CC(C6)C4)C5)cc3)cc21` (stereo not shown) [Example 33, 1-(Adamant-1-yl)-3-[2-(4-[2-[4-(2,4-dioxothiazolidin-5-ylmethyl)phenoxymethyl]-1-methyl-1H-benzimidazol-6-yloxy]phenyl)ethyl]urea dihydrochloride], the inhibition in vivo at 0.01 % in diet was determined as 30.4%. To `Cn1c(COc2ccc(CC3SC(=O)NC3=O)cc2)nc2ccc(Oc3ccc(CCNC(=O)Nc4ccc(C(F)(F)F)cc4)cc3)cc21` (stereo not shown) [Example 34, 1-[2-(4-[2-[4-(2,4-Dioxothiazolidin-5-ylmethyl)phenoxymethyl]-1-methyl-1H-benzimidazol-6-yloxy]phenyl)ethyl]-3-[4-(trifluoromethyl)phenyl]urea hydrochloride] belongs 32.8%; to `Cn1c(COc2ccc(CC3SC(=O)NC3=O)cc2)nc2ccc(OCCc3ccc(NC(=O)Nc4ccc(C(F)(F)F)cc4)cc3)cc21` (stereo not shown) [Example 37, 1-[4-(2-[2-[4-(2,4-Dioxothiazolidin-5-ylmethyl)phenoxymethyl]-1-methyl-1H-benzimidazol-6-yloxy]ethyl)phenyl]-3-[4-(trifluoromethyl)phenyl]urea], 35.2%; to `CC(C)c1cccc(C(C)C)c1NC(=O)Nc1cccc2ccc(Oc3ccc4nc(COc5ccc(CC6SC(=O)NC6=O)cc5)n(C)c4c3)cc12` (stereo not shown) [Example 40, 1-(2,6-Diisopropylphenyl)-3-[7-[2-[4-(2,4-dioxothiazolidin-5-ylmethyl)phenoxymethyl]-1-methyl-1H-benzimidazol-6yloxy]naphthalen-1-yl)urea], 59.3%. In the case of `Cn1c(COc2ccc(CC3SC(=O)NC3=O)cc2)nc2ccc(Oc3ccc4cccc(NC(=S)NCc5ccccc5)c4c3)cc21` (stereo not shown) [Example 44, 1-Benzyl-3-(7-[2-[4-(2,4-dioxothiazolidin-5-ylmethyl)phenoxymethyl]-1-methyl-1H-benzimidazol-6-yloxy]naphthalen-1-yl)thiourea] it was 47.2%; in that of `Cn1c(COc2ccc(CC3SC(=O)NC3=O)cc2)nc2ccc(Oc3ccc4cccc(NC(=O)NCc5ccccc5)c4c3)cc21` (stereo not shown) [Example 45, 1-Benzyl-3-(7-[2-[4-(2,4-dioxothiazolidin-5-ylmethyl)phenoxymethyl]-1-methyl-1H-benzimidazol-6-yloxy]naphthalen-1-yl)urea], 54.1%. For the molecule `CC(=O)Nc1ccc(Oc2ccc3nc(COc4ccc(CC5SC(=O)NC5=O)cc4)n(C)c3c2)cc1` (stereo not shown) [Example 52, N-[4-[2-[4-(2,4-Dioxothiazolidin-5-ylmethyl)phenoxymethyl]-1-methyl-1H-benzimidazol-6-yloxy]phenyl]acetamide], the inhibition in vivo at 0.01 % in diet amounted to 58.5%.

On to `Cn1c(COc2ccc(CC3SC(=O)NC3=O)cc2)nc2ccc(Oc3ccc(NC(=O)c4ccccc4)cc3)cc21` (stereo not shown) [Example 53, N-[4-[2-[4-(2,4-Dioxothiazolidin-5-ylmethyl)phenoxymethyl]-1-methyl-1H-benzimidazol-6-yloxy]phenyl]benzamide], for which the inhibition in vivo at 0.01 % in diet is 59.6%.
